# Results taken from US20040039052A1, “Urinary incontinence therapy” (priority 1997, published 2004).
# Marks after values point to notes of the source that are not given here.
# Experiments:
# [1] = tested on: patients with MS (detrusor hyperreflexia); assay: separate study: RTX instillation in patients with MS; type: in vivo, human; design: LVA Lost volume after RTX / CAPA Capacity after RTX: unit not given here
# rat urinary bladders = conditions: anesthetized rats; repeated perfusions; cited from earlier work
# [2] = tested on: patients with MS (detrusor hyperreflexia); assay: separate study: RTX instillation in patients with MS; type: in vivo, human
# Description: A separate study was undertaken with administration of 0.1 μM RTX to a group of 6 patients with MS. […] One patient was bedridden with an indwelling catheter. Despite the catheter, occasional bursts of detrusor hyperreflexia caused explosive expulsions of urine such that urine leaked around the catheter. No urinary dynamic measurements were taken but 100 ml of 1 μM solution was administered. […] The remaining four patients were all on crutches or in wheelchairs. They were on scheduled intermittent self-catheterizations and remained so.
# [3] = tested on: normal human volunteers and patients with unstable detrusor; conditions: 10^−8M (0.01 μM) RTX intravesicular, cited from earlier work
# [4] = four MS patients, one month after treatment
compound,measurement,setting,value
"C=C(C)[C@]12C[C@@H](C)[C@@]34O[C@](Cc5ccccc5)(O[C@@H]1[C@@H]3C=C(COC(=O)Cc1ccc(O)c(OC)c1)C[C@]1(O)C(=O)C(C)=C[C@@H]41)O2 [RTX, resiniferatoxin]",CAPA Capacity after RTX,"[1]; Patient 6, Dose 500 nM, one month after treatment, CAPB before RTX 200",360
same,DA Drug after RTX,"[1]; Patient 6, Dose 500 nM, one month after treatment, DB before RTX 2",01
same,LVA Lost volume after RTX,"[1]; Patient 6, Dose 500 nM, one month after treatment, LVB before RTX 60",10
same,ULPA Urine loss pressure after RTX,"[1]; Patient 6, Dose 500 nM, one month after treatment, ULPB before RTX 96",40
same,LVA Lost volume after RTX,"[1]; Patient 7 (stress incontinent), Dose 500 nM, one month after treatment, LVB 100",80*
same,CAPA Capacity after RTX,"[1]; Patient 7, Dose 500 nM, one month after treatment, CAPB 180",750
same,DA Drug after RTX,"[1]; Patient 7, Dose 500 nM, one month after treatment, DB 2",1
same,ULPA Urine loss pressure after RTX,"[1]; Patient 7, Dose 500 nM, one month after treatment, ULPB 63",36
same,CAPA Capacity after RTX,"[1]; Patient 9, Dose 1000 nM, one month after treatment, CAPB 100",300
same,DA Drug after RTX,"[1]; Patient 9, Dose 1000 nM, one month after treatment, DB 2",2
same,LVA Lost volume after RTX,"[1]; Patient 9, Dose 1000 nM, one month after treatment, LVB 180",0
same,ULPA Urine loss pressure after RTX,"[1]; Patient 9, Dose 1000 nM, one month after treatment, ULPB 32",30
same,CAPA Capacity after RTX,"[1]; Patient 10, Dose 1000 nM, one month after treatment, CAPB 280",460
same,DA Drug after RTX,"[1]; Patient 10, Dose 1000 nM, one month after treatment, DB 2",2
same,LVA Lost volume after RTX,"[1]; Patient 10, Dose 1000 nM, one month after treatment, LVB 180",0
same,ULPA Urine loss pressure after RTX,"[1]; Patient 10, Dose 1000 nM, one month after treatment, ULPB 46",44
same,urge and leakage around indwelling catheter,"[1]; bedridden MS patient, 100 ml of 1 μM solution, six weeks",no urge and no leakage
same,Urinary loss,[1]; [4],decreased after instillation of RTX in all four patients
same,desensitizing effect of bladder perfusion,rat urinary bladders,desensitization was occurring
same,side effects,[2]; even at a dose of 1.0 μM RTX,"No side effects, particularly no meaningful burning or irritation were observed"
same,Capacity,[2]; [4],increased in all patients
same,urine loss pressure,[2]; [4],decreased in all four although minimally in two
same,sensations upon administration,[3]; human subjects,no micturition reflex or burning upon administration
same,volume required to elicit first desire to void,[3]; patients having unstable detrusor,Three of five patients having unstable detrusor reported an increased volume
